Measurements from patent US4470974A, “Gastric cytoprotection with L-363,586” (Merck & Co., Inc., priority 1983, dated 1984).
Where two headings read alike, the source gives them in different places.

Assays:
[1] = test system: S.D. rat; format: in vivo; conditions: for dose at which significant ulcer reduction was observed: administered simultaneously with indomethacin; for Gastric Ulcers % Inhibition / Gastric Ulcers Mean Score + SEM (number of ulcers): 4 hours after indomethacin
Procedure: Indomethacin, 20 mg/kg p.o., was used to induce ulcers in the 24 hr. fasted S.D. rat. […]
The number of ulcers for twenty-six (i.p.) and fifteen (p.o.) aqueous vehicle-dosed control animals in the indomethacin ulcer assay were so close, (23.0±2.2 S.E.M. i.p.; 18.1±1.6 S.E.M. p.o.), that the data from each experimental dosage group were pooled for group statistical analysis by way of Student's "t" test. FIG. 1 indicates the number of ulcers resulting from indomethacin at 20 mg/kg p.o., when either 0.5% (wt.) aqueous methylcellulose vehicle or L-363,586 was co-administered. The bold-faced numbers at the bottom of each column represent the number of rats used for each value, while the dose, in mg/kg, is noted at the top of each column. […] Higher i.p. doses, from 0.0016 to 0.1 mg/kg, thereafter, inhibited ulcer formation by 80% to 94%.

[2] = test system: Sprague-Dawley (S.D.) rats; format: in vivo, rat; conditions: for Gastric Lesions % Inhibition / Gastric Lesions Mean Score + SEM: 60 minutes after ethanol
Procedure: Twenty-four hr. fasted Sprague-Dawley (S.D.) rats were perorally (p.o.) dosed with 1.0 ml absolute ethanol. […] One hour later, the animals were sacrificed and stomach mucosae were examined for resulting lesions.

[3] = 0.01 mg/kg p.o. simultaneously with indomethacin 20 mg/kg p.o.
[4] = 0.1 mg/kg p.o. simultaneously with indomethacin 20 mg/kg p.o.
[5] = 1.0 mg/kg p.o. simultaneously with indomethacin 20 mg/kg p.o.
[6] = 0.22 mg/kg p.o. coadministered with 1.0 ml 100% ethanol
[7] = 0.44 mg/kg p.o. coadministered with 1.0 ml 100% ethanol
[8] = 1.0 mg/kg p.o. coadministered with 1.0 ml 100% ethanol
[9] = 2.2 mg/kg p.o. coadministered with 1.0 ml 100% ethanol
[10] = 4.4 mg/kg p.o. coadministered with 1.0 ml 100% ethanol
[11] = 0.0001 mg/kg i.p. immediately following 20 mg/kg p.o. indomethacin
[12] = 0.001 mg/kg i.p. immediately following 20 mg/kg p.o. indomethacin
[13] = 0.01 mg/kg i.p. immediately following 20 mg/kg p.o. indomethacin
[14] = 0.1 mg/kg i.p. immediately following 20 mg/kg p.o. indomethacin

For CC(C)[C@@H]1NC(=O)[C@H](CCCCN)NC(=O)[C@@H](Cc2c[nH]c3ccccc23)NC(=O)[C@H](Cc2ccc(O)cc2)NC(=O)[C@H](C)N(C)C(=O)[C@H](Cc2ccccc2)NC1=O [L-363,586, cyclo-(N-methyl-Ala-Tyr-d-Trp-Lys-Val-Phe)], the “reduction of the number of ulcers” value ([1]; 0.00001 mg/kg (10 nanograms/kg) i.p. immediately following indomethacin 20 mg/kg p.o.) was 58.3%, the “% Inhibition of Gastric Ulcers” value [1, 3] was -2.8% and the “Number of Gastric Ulcers M + S.E.M.” value [1, 3] was 18.6 ± 4.4. The “% Inhibition of Gastric Ulcers” value [1, 4] was 50.3%, the “Number of Gastric Ulcers M + S.E.M.” value [1, 4] was 9.0 ± 1.9 and the “% Inhibition of Gastric Ulcers” value [1, 5] was 83.4%. For the same compound, the “Number of Gastric Ulcers M + S.E.M.” value [1, 5] was 3.0 ± 1.3, the “reduction in gastric mucosal ulcers” value ([1]; administered either p.o. or i.p.) was “dose-dependent reduction” and the “dose at which significant ulcer reduction was observed” value ([1]; i.p.) was 10 nanograms per kilogram. The “further reduction of damage with increasing dose” value ([1]; increasing log-dose amounts from 0.00001 to 0.001 mg/kg i.p., indomethacin 20 mg/kg p.o.) was “did not effectively reduce the damage any further”, the “dose at which significant ulcer reduction was observed” value ([1]; p.o.) was 0.1 mg/kg and the “Gastric Lesions % Inhibition” value [2, 6] was 8.0%. The “Gastric Lesions Mean Score + SEM” value [2, 6] was 2.3 ± 0.3, the “Gastric Lesions % Inhibition” value [2, 7] was 28.0% and the “Gastric Lesions Mean Score + SEM” value [2, 7] was 1.8 ± 0.4. For the same compound, the “Gastric Lesions % Inhibition” value [2, 8] was 28.0%, the “Gastric Lesions Mean Score + SEM” value [2, 8] was 1.8 ± 0.3 and the “Gastric Lesions % Inhibition” value [2, 9] was 40.0%. For the same compound, the “Gastric Lesions Mean Score + SEM” value [2, 9] was 1.5 ± 0.4, the “Gastric Lesions % Inhibition” value [2, 10] was 60.0% and the “Gastric Lesions Mean Score + SEM” value [2, 10] was 1.0 ± 0.3. The “prophylactic effect on ethanol-induced lesions” value ([2]; 0.037 to 3.0 mg/kg p.o. fifteen min. prior to 1.0 ml absolute ethanol, examined one hour later) was “No prophylactic effect” and the “dose significantly effective in protecting against ethanol-induced lesions” value ([2]; p.o. simultaneously with 100% ethanol, lowest such dose) was 0.44 mg/kg.
For C[C@H](N)C(=O)NCC(=O)N[C@H]1CSSC[C@@H](C(=O)O)NC(=O)[C@H](CO)NC(=O)[C@H]([C@@H](C)O)NC(=O)[C@H](Cc2ccccc2)NC(=O)[C@H]([C@@H](C)O)NC(=O)[C@H](CCCCN)NC(=O)[C@H](Cc2c[nH]c3ccccc23)NC(=O)[C@H](Cc2ccccc2)NC(=O)[C@H](Cc2ccccc2)NC(=O)[C@H](CC(N)=O)NC(=O)[C@H](CCCCN)NC1=O [somatostatin, reference compound], the “Gastric Ulcers % Inhibition” value [1, 11] was -9.3%, the “Gastric Ulcers Mean Score + SEM (number of ulcers)” value (from here on “Gastric Ulcers Mean Score + SEM”) [1, 11] was 22.4 ± 3.8 and the “Gastric Ulcers % Inhibition” value [1, 12] was 2.4%. The “Gastric Ulcers Mean Score + SEM” value [1, 12] was 21.0 ± 2.4, the “Gastric Ulcers % Inhibition” value [1, 13] was 16.1% and the “Gastric Ulcers Mean Score + SEM” value [1, 13] was 17.2 ± 2.3. For the same compound, the “Gastric Ulcers % Inhibition” value [1, 14] was 5.9%, the “Gastric Ulcers Mean Score + SEM” value [1, 14] was 19.3 ± 3.3 and the “Gastric Ulcers Mean Score + SEM” value ([1]; 0.5 mg/kg i.p. immediately following 20 mg/kg p.o. indomethacin) was 7.7 ± 3.6. The “Gastric Ulcers Mean Score + SEM” value ([1]; 1.0 mg/kg i.p. immediately following 20 mg/kg p.o. indomethacin) was 11.0 ± 3.0 and the “effectiveness in the peroral (p.o.) indomethacin-induced ulcer assay” value ([1]; doses up to 0.1 mg/kg i.p.) was “not effective”.
